# Like-named read-outs stand apart in the source and are kept apart here.
# Assays:
# Format in all cases: in vivo
# [1] = test system: Surinam grass (Brachiaria decumbens); assay: Test B pre/postemergence; conditions: Urochloa decumbens; for pest or weed control at 125 g/ha: 125 g ai/ha; for pest or weed control at 500 g/ha: 500 g ai/ha
# In short: (§1)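 Visual injury scored 0 (no effect) to 100 (complete control) versus untreated controls after 13 to 15 days in greenhouse. Treatments were pre- or postemergence sprays of surfactant-containing solvent formulations; postemergence plants at 1- to 4-leaf stage, 2 to 18 cm.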
# [2] = test system: barnyardgrass (Echinochloa crus-galli); assay: Test B pre/postemergence; conditions: Echinochloa crus-galli; for pest or weed control at 125 g/ha: 125 g ai/ha; for pest or weed control at 500 g/ha: 500 g ai/ha
# In short: as §1
# [3] = test system: cocklebur (Xanthium strumarium); assay: Test B pre/postemergence; conditions: Xanthium strumarium; for pest or weed control at 125 g/ha: 125 g ai/ha; for pest or weed control at 500 g/ha: 500 g ai/ha
# In short: as §1
# [4] = test system: corn (Zea mays); assay: Test B pre/postemergence; conditions: Zea mays
# In short: as §1
# [5] = test system: crabgrass (Digitaria sanguinalis); assay: Test B pre/postemergence; conditions: Digitaria sanguinalis; for pest or weed control at 125 g/ha: 125 g ai/ha; for pest or weed control at 500 g/ha: 500 g ai/ha
# In short: as §1
# [6] = test system: giant foxtail (Setaria faberii); assay: Test B pre/postemergence; conditions: Setaria faberi; for pest or weed control at 125 g/ha: 125 g ai/ha; for pest or weed control at 500 g/ha: 500 g ai/ha
# In short: as §1
# [7] = test system: lambsquarters (Chenopodium album); assay: Test B pre/postemergence; conditions: Chenopodium album; for pest or weed control at 125 g/ha: 125 g ai/ha; for pest or weed control at 500 g/ha: 500 g ai/ha
# In short: as §1
# [8] = test system: morningglory (Ipomoea coccinea); assay: Test B pre/postemergence; conditions: Ipomoea; for pest or weed control at 125 g/ha: 125 g ai/ha; for pest or weed control at 500 g/ha: 500 g ai/ha
# In short: as §1
# [9] = test system: pigweed (Amaranthus retroflexus); assay: Test B pre/postemergence; conditions: Amaranthus retroflexus; for pest or weed control at 125 g/ha: 125 g ai/ha; for pest or weed control at 500 g/ha: 500 g ai/ha
# In short: as §1
# [10] = test system: velvetleaf (Abutilon theophrasti); assay: Test B pre/postemergence; conditions: Abutilon theophrasti; for pest or weed control at 125 g/ha: 125 g ai/ha; for pest or weed control at 500 g/ha: 500 g ai/ha
# In short: as §1
# [11] = test system: wheat (Triticum aestivum); assay: Test B pre/postemergence; conditions: Triticum aestivum; for plant injury at 125 g/ha: 125 g ai/ha; for plant injury at 500 g/ha: 500 g ai/ha
# In short: as §1
# [12] = test system: blackgrass (Alopecurus myosuroides); assay: Test B postemergence; conditions: Alopecurus myosuroides, post-emergence
# In short: as §1
# [13] = test system: wild oat (Avena fatua); assay: Test B postemergence; conditions: Avena fatua, post-emergence
# In short: as §1
# [14] = test system: barnyardgrass (Echinochloa crus-galli); assay: Test B flooded paddy test; conditions: Echinochloa crus-galli, Flood, 1000 g ai/ha; scale 0 (no effect) to 100 (complete control); read-out: Plant response rating, Barnyardgrass
# In short: (§2)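 Rice, umbrella sedge, duck salad and barnyardgrass grown to 2-leaf stage under flooded paddy conditions and treated with formulated test chemicals. Kept in greenhouse 13–15 days, then visually rated against untreated controls on a 0–100 scale (0 no effect, 100 complete control).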
# [15] = test system: duck salad (Heteranthera limosa); assay: Test B flooded paddy test; conditions: Heteranthera limosa, Flood, 1000 g ai/ha; scale 0 to 100; read-out: Plant response rating, Ducksalad
# In short: as §2
# [16] = test system: rice (Oryza sativa); assay: Test B flooded paddy test; conditions: Oryza sativa, Flood, 1000 g ai/ha; scale 0 to 100; read-out: Plant response rating, Rice
# In short: as §2
# [17] = test system: umbrella sedge (Cyperus difformis); assay: Test B flooded paddy test; conditions: Cyperus difformis, Flood, 1000 g ai/ha; scale 0 to 100; read-out: Plant response rating, Sedge, Umbrella
# In short: as §2
compound,measurement,setting,value
Nc1nc(C2CC2)nc(C=O)c1Br [Compound 26],pest or weed control at 125 g/ha,"[1]; post-emergence, Postemergence, scale 0 to 100 (0 no effect, 100 complete control), read-out: Surinam Grass plant response rating",30%
same,pest or weed control at 500 g/ha,"[1]; post-emergence, Postemergence, scale 0 to 100, read-out: Plant response rating, Surinam Grass",60%
same,pest or weed control at 125 g/ha,"[1]; pre-emergence, Preemergence, scale 0 to 100 (0 no effect, 100 complete control), read-out: Plant response rating, Surinam Grass",10%
same,pest or weed control at 500 g/ha,"[1]; pre-emergence, Preemergence, scale 0 to 100 (0 no effect, 100 complete control), read-out: Surinam Grass plant response rating",80%
same,pest or weed control at 125 g/ha,"[2]; post-emergence, Postemergence, scale 0 to 100 (0 no effect, 100 complete control), read-out: Barnyardgrass plant response rating",20%
same,pest or weed control at 500 g/ha,"[2]; post-emergence, Postemergence, scale 0 to 100, read-out: Plant response rating, Barnyardgrass",60%
same,pest or weed control at 125 g/ha,"[2]; pre-emergence, Preemergence, scale 0 to 100 (0 no effect, 100 complete control), read-out: Plant response rating, Barnyardgrass",50%
same,pest or weed control at 500 g/ha,"[2]; pre-emergence, Preemergence, scale 0 to 100 (0 no effect, 100 complete control), read-out: Barnyardgrass plant response rating",90%
same,pest or weed control at 125 g/ha,"[3]; post-emergence, Postemergence, scale 0 to 100 (0 no effect, 100 complete control), read-out: Cocklebur plant response rating",80%
same,pest or weed control at 500 g/ha,"[3]; post-emergence, Postemergence, scale 0 to 100, read-out: Plant response rating, Cocklebur",90%
same,pest or weed control at 125 g/ha,"[3]; pre-emergence, Preemergence, scale 0 to 100 (0 no effect, 100 complete control), read-out: Plant response rating, Cocklebur",80%
same,pest or weed control at 500 g/ha,"[3]; pre-emergence, Preemergence, scale 0 to 100 (0 no effect, 100 complete control), read-out: Cocklebur plant response rating",90%
same,plant injury at 125 g/ha,"[4]; post-emergence, Postemergence, 125 g ai/ha, scale 0 to 100 (0 no effect, 100 complete control), read-out: Corn plant response rating",0%
same,"Corn plant response rating (crop injury, 0 = no effect, 100 = complete kill) at 500 g/ha","[4]; post-emergence, Postemergence, 500 g ai/ha, scale 0 to 100",20%
same,"Corn plant response rating (crop injury, 0 = no effect, 100 = complete kill) at 125 g/ha","[4]; pre-emergence, Preemergence, 125 g ai/ha, scale 0 to 100 (0 no effect, 100 complete control)",30%
same,plant injury at 500 g/ha,"[4]; pre-emergence, Preemergence, 500 g ai/ha, scale 0 to 100 (0 no effect, 100 complete control), read-out: Corn plant response rating",80%
same,pest or weed control at 125 g/ha,"[5]; post-emergence, Postemergence, scale 0 to 100 (0 no effect, 100 complete control), read-out: Crabgrass plant response rating",40%
same,pest or weed control at 500 g/ha,"[5]; post-emergence, Postemergence, scale 0 to 100, read-out: Plant response rating, Crabgrass",70%
same,pest or weed control at 125 g/ha,"[5]; pre-emergence, Preemergence, scale 0 to 100 (0 no effect, 100 complete control), read-out: Plant response rating, Crabgrass",30%
same,pest or weed control at 500 g/ha,"[5]; pre-emergence, Preemergence, scale 0 to 100 (0 no effect, 100 complete control), read-out: Crabgrass plant response rating",90%
same,pest or weed control at 125 g/ha,"[6]; post-emergence, Postemergence, scale 0 to 100 (0 no effect, 100 complete control), read-out: Foxtail, Giant plant response rating",30%
same,pest or weed control at 500 g/ha,"[6]; post-emergence, Postemergence, scale 0 to 100, read-out: Plant response rating, Foxtail, Giant",40%
same,pest or weed control at 125 g/ha,"[6]; pre-emergence, Preemergence, scale 0 to 100 (0 no effect, 100 complete control), read-out: Plant response rating, Foxtail, Giant",10%
same,pest or weed control at 500 g/ha,"[6]; pre-emergence, Preemergence, scale 0 to 100 (0 no effect, 100 complete control), read-out: Foxtail, Giant plant response rating",80%
same,pest or weed control at 125 g/ha,"[7]; post-emergence, Postemergence, scale 0 to 100 (0 no effect, 100 complete control), read-out: Lambsquarters plant response rating",70%
same,pest or weed control at 500 g/ha,"[7]; post-emergence, Postemergence, scale 0 to 100, read-out: Plant response rating, Lambsquarters",80%
same,pest or weed control at 125 g/ha,"[7]; pre-emergence, Preemergence, scale 0 to 100 (0 no effect, 100 complete control), read-out: Plant response rating, Lambsquarters",100%
same,pest or weed control at 500 g/ha,"[7]; pre-emergence, Preemergence, scale 0 to 100 (0 no effect, 100 complete control), read-out: Lambsquarters plant response rating",100%
same,pest or weed control at 125 g/ha,"[8]; post-emergence, Postemergence, scale 0 to 100 (0 no effect, 100 complete control), read-out: Morningglory plant response rating",70%
same,pest or weed control at 500 g/ha,"[8]; post-emergence, Postemergence, scale 0 to 100, read-out: Plant response rating, Morningglory",80%
same,pest or weed control at 125 g/ha,"[8]; pre-emergence, Preemergence, scale 0 to 100 (0 no effect, 100 complete control), read-out: Plant response rating, Morningglory",90%
same,pest or weed control at 500 g/ha,"[8]; pre-emergence, Preemergence, scale 0 to 100 (0 no effect, 100 complete control), read-out: Morningglory plant response rating",100%
same,pest or weed control at 125 g/ha,"[9]; post-emergence, Postemergence, scale 0 to 100 (0 no effect, 100 complete control), read-out: Pigweed plant response rating",70%
same,pest or weed control at 500 g/ha,"[9]; post-emergence, Postemergence, scale 0 to 100, read-out: Plant response rating, Pigweed",80%
same,pest or weed control at 125 g/ha,"[9]; pre-emergence, Preemergence, scale 0 to 100 (0 no effect, 100 complete control), read-out: Plant response rating, Pigweed",90%
same,pest or weed control at 500 g/ha,"[9]; pre-emergence, Preemergence, scale 0 to 100 (0 no effect, 100 complete control), read-out: Pigweed plant response rating",100%
same,pest or weed control at 125 g/ha,"[10]; post-emergence, Postemergence, scale 0 to 100 (0 no effect, 100 complete control), read-out: Velvetleaf plant response rating",40%
same,pest or weed control at 500 g/ha,"[10]; post-emergence, Postemergence, scale 0 to 100, read-out: Plant response rating, Velvetleaf",70%
same,pest or weed control at 125 g/ha,"[10]; pre-emergence, Preemergence, scale 0 to 100 (0 no effect, 100 complete control), read-out: Plant response rating, Velvetleaf",90%
same,pest or weed control at 500 g/ha,"[10]; pre-emergence, Preemergence, scale 0 to 100 (0 no effect, 100 complete control), read-out: Velvetleaf plant response rating",100%
same,plant injury at 125 g/ha,"[11]; post-emergence, Postemergence, scale 0 to 100 (0 no effect, 100 complete control), read-out: Wheat plant response rating",30%
same,plant injury at 500 g/ha,"[11]; post-emergence, Postemergence, scale 0 to 100, read-out: Plant response rating, Wheat",30%
same,plant injury at 125 g/ha,"[11]; pre-emergence, Preemergence, scale 0 to 100 (0 no effect, 100 complete control), read-out: Plant response rating, Wheat",30%
same,plant injury at 500 g/ha,"[11]; pre-emergence, Preemergence, scale 0 to 100 (0 no effect, 100 complete control), read-out: Wheat plant response rating",60%
same,pest or weed control at 125 g/ha,"[12]; 125 g ai/ha, scale 0 to 100 (0 no effect, 100 complete control), read-out: Blackgrass plant response rating",40%
same,pest or weed control at 500 g/ha,"[12]; 500 g ai/ha, scale 0 to 100, read-out: Plant response rating, Blackgrass",70%
same,pest or weed control at 125 g/ha,"[13]; 125 g ai/ha, scale 0 to 100 (0 no effect, 100 complete control), read-out: Oat, Wild plant response rating",30%
same,pest or weed control at 500 g/ha,"[13]; 500 g ai/ha, scale 0 to 100, read-out: Plant response rating, Oat, Wild",40%
same,pest or weed control at 1000 g/ha,[14],60%
same,pest or weed control at 1000 g/ha,[15],90%
same,plant injury at 1000 g/ha,[16],70%
same,pest or weed control at 1000 g/ha,[17],80%
